The results in this text go back to article PMC8868297, “Stapling of Peptides Potentiates the Antibiotic Treatment of Acinetobacter baumannii In Vivo” (Antibiotics, 2022).

As usually defined, the MIC is the lowest concentration that inhibits growth of the organism.

Data set [1] has as its system A. baumannii 1757. Briefly: Zebrafish larvae infection model. Particulars: rifampicin / erythromycin experiment (Table S8); infected larvae, caudal vein injection, five days post infection; mean of three independent experiments.
Description: Transparent Casper zebrafish (Danio rerio) larvae were infected and treated according to protocols described by Van der Sar et al. and Bernard et al. [43, 44]. In short, zebrafish larvae collected from a laboratory-breeding colony kept at 24 °C and a 12:12 h dark/light regime. Larvae were selected based on morphology according to hours post fertilization (hpf) and kept at 28 °C. All protocols followed the international guidelines on the protection of animals used for scientific purposes specified by the EU Directive 2010/63/EU, which allows zebrafish larvae to be used up to the moment of free-living (5–7 dpf). Larvae were dechorionated at 28 hpf and anaesthetized in 0.2% tricaine methanesulfonate (MS222, Fluka A-5040). Larvae were individually infected with 1 nL, containing approximately 100–150 CFU (1–1.5 CFU/mL), of Gram-negative bacteria via microinjection of the caudal vein as described previously [33]. One hour post infection, larvae were treated with cationic (stapled) peptides, antibiotics or a combination of the two via another microinjection of 1 nL in the caudal vein. […] Zebrafish larvae were kept at 30 °C throughout the experiment and survival of the larvae, based on heartbeat, was determined every 24 h for 5 days.
For data set [2] the following is noted: normal pooled human serum, 100 µM peptide from 10 mM DMSO stock, 37 °C, samples at 0, 15, 60 min, TCA precipitation, LC-MS TIC vs carbamazepine internal standard, triplicate; Figure 2C. As for the experimental part:
The stability measurements were performed in normal pooled human serum (PHS). The respective peptide was diluted to a final concentration of 100 μM in the aforementioned human serum (from 10 mM peptide stocks in DMSO). Then, 100 μM Carbamazepine was used as an internal standard; 60 μL of aforementioned peptide/Carbamazepine solution in PHS was incubated for 1h at 37 °C/750 rpm and 20 μL samples were taken after 0 min, 15 min and 60 min. Next, 1.5 μL of TCA was added to the sample to precipitate serum proteins. The samples were subsequently incubated on ice for 10 min and then centrifuged (12,000× g, 10 min). Then, 5 μL of supernatant was diluted in 20 μL of H2O/MeCN + 0.1% TFA. The sample was subsequently analyzed by LCMS on an Nucleodur C4-column (Macherey Nagel CC125/4 Nucleodur C4 Gravity, 5 µm) using a linear aqueous MeCN gradient containing FA (0.1%, v/v) and TFA (0.01%, v/v) as ion pair reagent (5–95%, 8 min). Peptides were quantified using the total ion count (TIC) of selected molecular ions. Remaining peptide quantities were calculated by normalizing the peptide peak areas using the internal standard peak areas and subsequently comparing the obtained value with the 0 min measurement. All measurements were performed in triplicate.

In another data set the test system is zebrafish larvae. Briefly: Toxicity in zebrafish larvae (survival after caudal vein injection). Particulars: survival of uninfected larvae vs vehicle (50% DMSO), five days.
Data set [3] deals with A. baumannii 1757. Kind of data set: MIC / checkerboard synergy assay (also with added LPS). In kind it is cell-based, Acinetobacter baumannii. As for the experimental part: (§1) Minimum inhibitory concentrations of the peptides and antibiotics were determined according to the protocol described by Wiegand et al.. Briefly, two-fold dilution series of cationic peptides in 50 µL volume of LB broth containing 2% DMSO were made in polypropylene 96-well microtiter plates (Ratiolab, L6018123, Dreieich, Germany). The optical density at 600 nm (OD600) of growing bacterial cultures was followed, and at mid-log-phase (OD600 ~0.4–0.5) cultures were diluted to OD600 0.02 and 50 µL was added to the wells, resulting in a total volume of 100 µl, an OD600 of ~0.01 and a DMSO concentration of 1%. An OD600 of ~0.01 accounted for approximately 3 × 10^8 colony forming units per mL (CFU/mL) for A. baumannii, 1 × 10^7 CFU/mL for E. coli and 5 × 10^7 CFU/mL for K. pneumoniae as determined by plate counting.
(§2) In a similar manner, two-fold dilution series of antibiotics were made in polystyrene microtiter plates (Costar, REF3779, Corning NY, United States) in 70 µL volume of LB broth. Then, 50 µL of the antibiotic series was transferred to the peptide containing polypropylene plate, resulting in a checkerboard titration of a peptide on the vertical axis and an antibiotic on the horizontal axis. To some checkerboard assays 15 µg/mL isolated smooth (sm) LPS (from E. coli O55:B5, Sigma-Aldrich, L2880), rough (Ra) LPS (from E. coli EH100, Sigma-Aldrich, L9641) or deep rough (Rd) LPS (from E. coli F583, Sigma-Aldrich, L6893) LPS was added to the LB broth. Mid-log phase cultures were diluted to OD600 0.1 and 10 µL culture was added to each well of the microtiter plate, resulting in a total volume of 110 µL and an OD600 of ~0.01 (~3 × 10^8 CFU/mL), and the OD600 was measured every 15 min for 12 h using the microplate reader. First, the MIC values of the antibiotics alone and the MIC values of the peptides alone were determined as described previously. Similarly, the MIC values of the antibiotics in combination with the different peptides and the MIC values of the peptides in combination with the antibiotics were determined (the fractional inhibitory concentrations (FIC)). […] An FICindex between 0.5 and 1 was considered to be an additive effect.

The nature of another data set: circular dichroism. To be noted: 5 mM sodium phosphate; pH 7.5; 20 °C; 7.5 uM. A general note: CD spectra are sensitive to the conformation of chiral molecules.
The next data set deals with sheep red blood cells. To be noted: sheep RBCs in DMEM, 1 h, 32 °C, OD405; relative to 1% Triton-X100; negative control polymyxin B nonapeptide. As for the experimental part:
Defibrinated sheep blood was purchased from BioTrading (LOT 21118SG66, Mijdrecht, The Netherlands) and kept at 4 °C. As previously described by Phan et al., red blood cells (RBCs) were pelleted by centrifugation at 600× g for 7 min at 4 °C and gently resuspended in phenol red-free Dulbecco’s Modified Eagle Medium (DMEM, Gibco 21063-029, ThermoFisher Scientific, Waltham MA, United States). This was repeated five times until the supernatant appeared colorless. In the meantime, 10-fold dilution series of the peptides at 50 μM, 5 μM and 0.5 μM in 50 µl DMEM, 1% DMSO were made in polypropylene microtiter plates (Ratiolab, L6018123, Dreieich, Germany). Triton-X100 (1%, Sigma-Aldrich T-8787) and DMSO (10%, Sigma-Aldrich D-8418) were used as positive and negative controls, respectively. Polymyxin B (Sigma-Aldrich, p-1411) and polymyxin B nonapeptide (Sigma-Aldrich, p-2076) were used as reference lytic and non-lytic peptides. Then, 50 µL of RBCs was added to each well. The plate was sealed and incubated at 5% CO2 for one hour at 32 °C, after which the plate was centrifuged at 610× g for 5 min at room temperature. Next, 70 µL supernatant was removed and transferred to a flat-bottomed polystyrene microtiter plate (Costar, REF3779) and the OD405, as a measure of released hemoglobin, was determined using a microplate reader (Synergy H1 Multi-Mode Reader or Synergy HTX Multi-Mode Reader, BioTek). Percentage of hemolysis was calculated using the following equation: (2) % hemolysis=(absorbance test sample)-(absorbance diluent)/(absorbance positive control)-(absorbance diluent)

Another data set concerns E. coli 31. Kind of data set: MIC / checkerboard synergy assay. To be noted: Escherichia coli, 31, 12 h; read-out: MIC (compound alone). Format: cell-based. As for the experimental part: as §1
(§3) In a similar manner, two-fold dilution series of antibiotics were made in polystyrene microtiter plates (Costar, REF3779, Corning NY, United States) in 70 µL volume of LB broth. […] Mid-log phase cultures were diluted to OD600 0.1 and 10 µL culture was added to each well of the microtiter plate, resulting in a total volume of 110 µL and an OD600 of ~0.01 (~3 × 10^8 CFU/mL), and the OD600 was measured every 15 min for 12 h using the microplate reader. First, the MIC values of the antibiotics alone and the MIC values of the peptides alone were determined as described previously. […]

For the next data set, the system named is E. coli gsk12. Briefly: MIC / checkerboard synergy assay. In kind it is cell-based, Escherichia coli. As for the experimental part: as §1, §3
For a further data set, the system named is A. baumannii 2196. Kind of data set: MIC / checkerboard synergy assay. Particulars: Acinetobacter baumannii, 2196, 12 h; read-out: MIC (compound alone). In kind it is cell-based, Acinetobacter baumannii. As for the experimental part:
as §1, §2

For the next data set, the system named is A. baumannii 1681. Kind of data set: MIC / checkerboard synergy assay. Particulars: Acinetobacter baumannii, 1681, 12 h; read-out: MIC (compound alone). In kind it is cell-based, Acinetobacter baumannii. The method, then: as §1, §2
The test system of a further data set is K. pneumoniae 613. Briefly: MIC / checkerboard synergy assay. Format: cell-based, Klebsiella pneumoniae. Particulars: Klebsiella pneumoniae, 613, 12 h; read-out: MIC (compound alone). As for the experimental part:
as §1, §2

The next data set concerns K. pneumoniae 94. Briefly: MIC / checkerboard synergy assay. In kind it is cell-based, Klebsiella pneumoniae. To be noted: Klebsiella pneumoniae, 94, 12 h; read-out: MIC (compound alone). The method, then: as §1, §2
Another data set concerns K. pneumoniae 821. Kind of data set: MIC / checkerboard synergy assay. Particulars: Klebsiella pneumoniae, 821, 12 h; read-out: MIC (compound alone). Format: cell-based, Klebsiella pneumoniae. The method, then: as §1, §2
[4] abbreviates: compound alone, LB broth, MIC = 90% of growth prevented, OD600 over 12 h, mean ± SD.

Where two headings read alike, the source gives them in different places. Bridge positions count the residues as written; N and C are the ends. Square brackets hold non-standard residues; d marks the D form. Peptide text beside a SMILES is read from it. R8 = C=CCCCCCC[C@@](C)(N)C(=O)O; S5 = C=CCCC[C@](C)(N)C(=O)O

For `CC[C@H]1OC(=O)[C@H](C)[C@@H](O[C@H]2C[C@@](C)(OC)[C@@H](O)[C@H](C)O2)[C@H](C)[C@@H](O[C@@H]2O[C@H](C)C[C@H](N(C)C)[C@H]2O)[C@](C)(O)C[C@@H](C)C(=O)[C@H](C)[C@@H](O)[C@]1(C)O` [Erythromycin, erythromycin], the “Survival (%)” value in the data set with A. baumannii 1757 [1] was found to be 0.01%.

In the case of `CC[C@H](C)[C@@H]1NC(=O)[C@H](CCCNC(=N)N)NC(=O)[C@H](CCC(N)=O)NC(=O)[C@](C)(NC(=O)[C@@H](NC(=O)[C@H](CCCNC(=N)N)NC(=O)[C@@H](N)CCCCN)[C@@H](C)CC)CCCCCCC=CCCC[C@@](C)(C(=O)N[C@@H](CCCNC(=N)N)C(N)=O)NC(=O)[C@H](Cc2c[nH]c3ccccc23)NC(=O)[C@H](CCCCN)NC(=O)[C@H](CCCCN)NC1=O` [Peptide L8S3] (H-KRI[R8]QRIKKW[S5]R-NH2; staple 4-11), in data set [2], the “stability in human serum (in words)” value was “highest stabilities”. Moreover, the “Log2FoldChange compared to vehicle injected” value with zebrafish larvae is reported as -0.08. Besides, in the data set with A. baumannii 1757 [3] (setting [4]), the “MIC (compound alone)” value amounted to 0.57 ± 0.23 µM. The molecule further returned a helicity in “circular dichroism” of 25%. In addition, the “hemolysis at 50 µM” value in the data set with sheep red blood cells is on record as “significantly more hemolytic to the RBCs than the negative control”.

In the case of `CN[C@H](CC(C)C)C(=O)N[C@H]1C(=O)N[C@@H](CC(N)=O)C(=O)N[C@H]2C(=O)N[C@H]3C(=O)N[C@H](C(=O)N[C@H](C(=O)O)c4cc(O)cc(O)c4-c4cc3ccc4O)[C@H](O)c3ccc(c(Cl)c3)Oc3cc2cc(c3O[C@@H]2O[C@H](CO)[C@@H](O)[C@H](O)[C@H]2O[C@H]2C[C@](C)(N)[C@H](O)[C@H](C)O2)Oc2ccc(cc2Cl)[C@H]1O` [Vancomycin, vancomycin], the minimum inhibitory concentration (MIC) is 24.5 ± 8.81 µM with E. coli 31; 78.7 ± 5.3 µM in the data set with E. coli gsk12 (Escherichia coli, GSK12, 12 h, read-out: MIC (compound alone)); 5.98 ± 4.55 µM with A. baumannii 1757 [3] (Acinetobacter baumannii, 1757, 12 h, read-out: MIC (compound alone)); 5.66 ± 4.15 µM in the data set with A. baumannii 1757 [3] (Acinetobacter baumannii, 1757, LB medium with soluble deep rough LPS 15 µg/ml, mean ± SD, read-out: MIC, + Rd-LPS (F583)); 9.86 ± 7.36 µM in the data set with A. baumannii 1757 [3] (Acinetobacter baumannii, 1757, LB medium with soluble rough LPS 15 µg/ml, mean ± SD, read-out: MIC, + Ra-LPS (EH100)); 5.88 ± 3.56 µM in the data set with A. baumannii 1757 [3] (Acinetobacter baumannii, 1757, LB medium with soluble smooth LPS 15 µg/ml, mean ± SD, read-out: MIC, + Sm-LPS (055:B5)). Besides, the MIC in the data set on A. baumannii 1757 [3] (Acinetobacter baumannii, 1757, LB medium without supplement (Table S4), mean ± SD, read-out: MIC, No supplement) is 3.03 ± 2.52 µM; in the data set on A. baumannii 2196, 34.7 ± 24 µM; in the data set with A. baumannii 1681 it was 19 ± 4.56 µM; in the data set on K. pneumoniae 613 it was 269 ± 140 µM; in the data set on K. pneumoniae 94 it was 263 ± 180 µM; with K. pneumoniae 821 it was 197 ± 194 µM. Moreover, the “MIC (compound alone)” value with E. coli gsk12 (setting [4]) worked out at 78.65 ± 5.3 µM. In addition, in the data set on zebrafish larvae, the “Log2FoldChange compared to vehicle injected” value is -0.26.
